According to US7396837B2, “Antitumoral analogs of lamellarins” (Pharma Mar, S.A.U., priority 2002, dated 2008):
Values belong to the compound of their own block, whether it stands above or below them.

How the values were obtained:
[1] = system: K-562; experiment: SRB colorimetric cell growth inhibition assay, K-562; type: cell-based
How it was run: (§1)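 Tested samples remained on human cancer cell cultures throughout the incubation; viable biomass was then stained with SRB and read colorimetrically.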

[2] = system: A-549; experiment: SRB colorimetric cell growth inhibition assay, A-549; type: cell-based
How it was run: as §1

[3] = system: SK-MEL-28; experiment: SRB colorimetric cell growth inhibition assay, SK-MEL-28; type: cell-based
How it was run: as §1

[4] = system: HT-29; experiment: SRB colorimetric cell growth inhibition assay, HT-29; type: cell-based
How it was run: as §1

[5] = system: LoVo; experiment: SRB colorimetric cell growth inhibition assay, LoVo; type: cell-based
How it was run: as §1

[6] = system: LoVo-Dox; experiment: SRB colorimetric cell growth inhibition assay, LoVo-Dox (MDR); type: cell-based
How it was run: as §1

[7] = system: DU-145; experiment: SRB colorimetric cell growth inhibition assay, DU-145; type: cell-based
How it was run: as §1

[8] = system: LNCaP; experiment: SRB colorimetric cell growth inhibition assay, LNCaP; type: cell-based
How it was run: as §1

[9] = system: SK-BR-3; experiment: SRB colorimetric cell growth inhibition assay, SK-BR-3; type: cell-based
How it was run: as §1

[10] = system: IGROV; experiment: SRB colorimetric cell growth inhibition assay, IGROV; type: cell-based
How it was run: as §1

[11] = system: IGROV-ET; experiment: SRB colorimetric cell growth inhibition assay, IGROV-ET (ET-743 resistant); type: cell-based
How it was run: as §1

[12] = system: PANC-1; experiment: SRB colorimetric cell growth inhibition assay, PANC-1; type: cell-based
How it was run: as §1

[13] = molecular target: T1, human topoisomerase I (Homo sapiens, UniProt P11387); experiment: Topoisomerase I DNA relaxation assay (supercoiled plasmid DNA); type: biochemical; settings: supercoiled plasmid DNA, each compound tested at 1 μM, agarose gel with ethidium bromide
T1 sequence (P11387 1-765): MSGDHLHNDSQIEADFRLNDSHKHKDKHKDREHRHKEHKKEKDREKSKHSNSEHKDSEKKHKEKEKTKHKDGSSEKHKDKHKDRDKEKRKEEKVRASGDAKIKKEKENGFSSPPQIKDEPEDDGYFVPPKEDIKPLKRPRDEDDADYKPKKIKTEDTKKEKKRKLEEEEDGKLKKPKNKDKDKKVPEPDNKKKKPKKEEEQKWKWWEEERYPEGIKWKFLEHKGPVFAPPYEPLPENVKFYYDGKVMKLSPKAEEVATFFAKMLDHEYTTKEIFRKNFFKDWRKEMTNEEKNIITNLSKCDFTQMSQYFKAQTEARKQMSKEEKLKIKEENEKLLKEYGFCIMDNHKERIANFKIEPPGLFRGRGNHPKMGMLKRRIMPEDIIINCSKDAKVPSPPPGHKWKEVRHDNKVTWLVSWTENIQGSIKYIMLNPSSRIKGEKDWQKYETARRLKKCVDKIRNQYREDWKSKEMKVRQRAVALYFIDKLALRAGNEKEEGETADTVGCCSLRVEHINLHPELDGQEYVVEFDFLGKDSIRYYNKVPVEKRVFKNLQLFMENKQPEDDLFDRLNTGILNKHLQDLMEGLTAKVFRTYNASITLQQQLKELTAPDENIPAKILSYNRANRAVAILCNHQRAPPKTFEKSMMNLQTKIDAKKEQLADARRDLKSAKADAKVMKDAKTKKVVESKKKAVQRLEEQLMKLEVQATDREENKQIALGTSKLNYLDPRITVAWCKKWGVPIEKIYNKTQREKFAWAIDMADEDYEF
Experimental: Two assays, based on DNA relaxation and DNA cleavage (Bailly, C. DNA relaxation and cleavage assays to study topoisomerase I inhibitors. Methods Enzymol. 2001, 340, 610-623) were used evaluate the effects of the lamellarin analogs on the catalytic activity of human topoisomerase I.
In the first assay, a supercoiled plasmid DNA was relaxed with topoisomerase I in the absence or presence of the test compounds, each tested at 1 μM. DNA relaxation products were then resolved by gel electrophoresis on agarose gels containing ethidium bromide to stain the DNA.

Compound: COc1cc(-c2c3n(c4c(=O)oc5cc(OC(=O)[C@@H](N)C(C)C)c(OC)cc5c24)CCc2cc(OC(=O)[C@@H](N)C(C)C)c(OC)cc2-3)ccc1OC(=O)[C@@H](N)C(C)C [Compound 135]
- IC (TGI) ([1]; Homo sapiens, K562, K-562, total growth inhibition (cytostatic effect), read-out: TGI K-562): 6.82 µM
- CC50 ([1]; Homo sapiens, K562, read-out: LC50 K-562, K-562, cell killing (cytotoxic effect)): 8.76 µM
- GI50 ([1]; K-562, GI=growth inhibition, read-out: GI50 K-562): 1070 nM
- GI50 ([2]; A-549, GI=growth inhibition, read-out: GI50 A-549): 3.34 µM
- IC (TGI) ([2]; Homo sapiens, A549, A-549, total growth inhibition (cytostatic effect), read-out: TGI A-549): 8.76 µM
- CC50 ([2]; Homo sapiens, A549, read-out: LC50 A-549, A-549, cell killing (cytotoxic effect)): 8.76 µM
- GI50 ([3]; MEL-28, GI=growth inhibition, read-out: GI50 MEL-28): 1670 nM
- TGI MEL-28 ([3]; MEL-28, total growth inhibition (cytostatic effect)): 5.00E−06 Molar
- CC50 ([3]; human): 8.76 µM
- GI50 ([4]; HT-29, GI=growth inhibition, read-out: GI50 HT-29): 1150 nM
- IC (TGI) ([4]; Homo sapiens, HT-29, HT-29, total growth inhibition (cytostatic effect), read-out: TGI HT-29): 4.82 µM
- CC50 ([4]; Homo sapiens, HT-29, read-out: LC50 HT-29, HT-29, cell killing (cytotoxic effect)): 8.76 µM
- CC50 ([5]; Homo sapiens, LoVo, read-out: LC50 LOVO, LOVO, cell killing (cytotoxic effect)): 8.76 µM
- IC (TGI) ([5]; Homo sapiens, LOVO, total growth inhibition (cytostatic effect), read-out: TGI LOVO): 8.76 µM
- GI50 ([5]; LOVO, GI=growth inhibition, read-out: GI50 LOVO): 2690 nM
- IC (TGI) ([6]; Homo sapiens, LOVO-DOX, total growth inhibition (cytostatic effect), read-out: TGI LOVO-DOX): 8.76 µM
- CC50 ([6]; Homo sapiens, read-out: LC50 LOVO-DOX, LOVO-DOX, cell killing (cytotoxic effect)): 8.76 µM
- GI50 ([6]; LOVO-DOX, GI=growth inhibition, read-out: GI50 LOVO-DOX): 3.8 µM
- GI50 ([7]; DU-145, GI=growth inhibition, read-out: GI50 DU-145): 1600 nM
- TGI DU-145 ([7]; DU-145, total growth inhibition (cytostatic effect)): 3.78E−06 Molar
- CC50 ([7]; human): 8.76 µM
- GI50 ([8]; LN-caP, GI=growth inhibition, read-out: GI50 LN-caP): 783 nM
- TGI LN-caP ([8]; LN-caP, total growth inhibition (cytostatic effect)): 2.02E−06 Molar
- CC50 ([8]; human): 4.91 µM
- GI50 ([9]; SK-BR-3, GI=growth inhibition, read-out: GI50 SK-BR-3): 579 nM
- TGI SK-BR-3 ([9]; SK-BR-3, total growth inhibition (cytostatic effect)): 2.61E−06 Molar
- CC50 ([9]; human): 8.76 µM
- GI50 ([10]; IGROV, GI=growth inhibition, read-out: GI50 IGROV): 2100 nM
- TGI IGROV ([10]; IGROV, total growth inhibition (cytostatic effect)): 4.68E−06 Molar
- CC50 ([10]; human): 8.76 µM
- GI50 ([11]; IGROV-ET, GI=growth inhibition, read-out: GI50 IGROV-ET): 586 nM
- TGI IGROV-ET ([11]; IGROV-ET, total growth inhibition (cytostatic effect)): 1.98E−06 Molar
- CC50 ([11]; human): 6.33 µM
- IC (TGI) ([12]; Homo sapiens, PANC-1, PANC-1, total growth inhibition (cytostatic effect), read-out: TGI PANC-1): 5.53 µM
- CC50 ([12]; Homo sapiens, PANC-1, read-out: LC50 PANC-1, PANC-1, cell killing (cytotoxic effect)): 8.76 µM
- GI50 ([12]; PANC-1, GI=growth inhibition, read-out: GI50 PANC-1): 2110 nM
- stimulation of DNA cleavage by topoisomerase I / inhibition of topoisomerase I (nicked DNA band) in DNA relaxation assay [13]: No effect

- stimulation of DNA cleavage by topoisomerase I / inhibition of topoisomerase I (nicked DNA band) in DNA relaxation assay [13]: inactive
Compound: COc1cc(-c2c3n(c4c(=O)oc5cc(OC(=O)c6cc(F)c(F)c(F)c6F)c(OC)cc5c24)CCc2cc(OC(=O)c4cc(F)c(F)c(F)c4F)c(OC)cc2-3)ccc1OC(=O)c1cc(F)c(F)c(F)c1F [Compound 139]

Compound: COc1cc(-c2c3n(c4c(=O)oc5cc(OC(=O)[C@@H](NC(=O)OC(C)(C)C)C(C)C)c(OC)cc5c24)CCc2cc(OC(=O)[C@@H](NC(=O)OC(C)(C)C)C(C)C)c(OC)cc2-3)ccc1OC(=O)[C@@H](NC(=O)OC(C)(C)C)C(C)C [Compound 144]
- stimulation of DNA cleavage by topoisomerase I / inhibition of topoisomerase I (nicked DNA band) in DNA relaxation assay [13]: No effect
